According to US12522614B2, “Topical phosphoinositide 3-kinase inhibitors” (VENTHERA, INC., priority 2019, dated 2026):

Legend:
PI3Kd (p110d/p85a) = target: T1, PI3Kd (p110d/p85a) (Homo sapiens, UniProt O00329); assay: Lipid kinase inhibitory activity, ADP-Glo; type: biochemical; conditions: δ
T1 construct: purchased Reaction Biology Corporation (RBC)
Procedure: (§1) Lipid kinases: Lipid kinases from Reaction Biology Corporation (RBC) in ADP-Glo format were used.
(§2) Assay Description: The kinase reactions utilized ATP and produced ADP as a byproduct. The ADP production was quantified by ADP-Glo luminescence detection. This assay was a 3-step reaction. First, the kinase reaction with lipid substrate was carried out in the presence of ATP, and the reaction was quenched and depleted remaining ATP with ADP-Glo™ reagent, and then finally ADP was converted to ATP which was measured using a luciferase/luciferin reaction.
(§3) Assay Procedure: The assay was performed according to the steps as follows: • 1. Preparing substrate in freshly prepared reaction buffer; • 2. Delivering kinase into the substrate solution and gently mixing; • 3. Delivering compounds in […] into the kinase reaction mixture by Acoustic technology (Echo550; nanoliter range), incubating for 20 minutes at room temperature; • 4. Delivering ATP into the reaction mixture to initiate the reaction; • 5. Incubating for 30 minutes at 30° C.; • 6. Quenching the reaction with ADP-Glo reagent and incubating for 40 minutes; • 7. Adding Detection Mixture and incubating for 30 minutes; and • 8. Measuring luminescence.
(§4) Data Analysis: The luminescence was converted into μM ADP production based on ADP standard curves. The nonlinear regression to obtain the standard curve and IC50 values were performed using Graphpad Prism software.

MTOR/FRAP1 = target: T2, MTOR/FRAP1 (Homo sapiens, UniProt P42345); assay: Lipid kinase inhibitory activity, ADP-Glo; type: biochemical
T2 construct: purchased Reaction Biology Corporation (RBC)
Procedure: as §1, §2, §3, §4

PI3K (p110a(E545K)/p85a) = target: T3, PI3K (p110a(E545K)/p85a) (Homo sapiens, UniProt P42336, E545K); assay: Lipid kinase inhibitory activity, ADP-Glo; type: biochemical; conditions: α E545K
T3 construct: purchased Reaction Biology Corporation (RBC)
T3 sequence (P42336 whole entry E545K): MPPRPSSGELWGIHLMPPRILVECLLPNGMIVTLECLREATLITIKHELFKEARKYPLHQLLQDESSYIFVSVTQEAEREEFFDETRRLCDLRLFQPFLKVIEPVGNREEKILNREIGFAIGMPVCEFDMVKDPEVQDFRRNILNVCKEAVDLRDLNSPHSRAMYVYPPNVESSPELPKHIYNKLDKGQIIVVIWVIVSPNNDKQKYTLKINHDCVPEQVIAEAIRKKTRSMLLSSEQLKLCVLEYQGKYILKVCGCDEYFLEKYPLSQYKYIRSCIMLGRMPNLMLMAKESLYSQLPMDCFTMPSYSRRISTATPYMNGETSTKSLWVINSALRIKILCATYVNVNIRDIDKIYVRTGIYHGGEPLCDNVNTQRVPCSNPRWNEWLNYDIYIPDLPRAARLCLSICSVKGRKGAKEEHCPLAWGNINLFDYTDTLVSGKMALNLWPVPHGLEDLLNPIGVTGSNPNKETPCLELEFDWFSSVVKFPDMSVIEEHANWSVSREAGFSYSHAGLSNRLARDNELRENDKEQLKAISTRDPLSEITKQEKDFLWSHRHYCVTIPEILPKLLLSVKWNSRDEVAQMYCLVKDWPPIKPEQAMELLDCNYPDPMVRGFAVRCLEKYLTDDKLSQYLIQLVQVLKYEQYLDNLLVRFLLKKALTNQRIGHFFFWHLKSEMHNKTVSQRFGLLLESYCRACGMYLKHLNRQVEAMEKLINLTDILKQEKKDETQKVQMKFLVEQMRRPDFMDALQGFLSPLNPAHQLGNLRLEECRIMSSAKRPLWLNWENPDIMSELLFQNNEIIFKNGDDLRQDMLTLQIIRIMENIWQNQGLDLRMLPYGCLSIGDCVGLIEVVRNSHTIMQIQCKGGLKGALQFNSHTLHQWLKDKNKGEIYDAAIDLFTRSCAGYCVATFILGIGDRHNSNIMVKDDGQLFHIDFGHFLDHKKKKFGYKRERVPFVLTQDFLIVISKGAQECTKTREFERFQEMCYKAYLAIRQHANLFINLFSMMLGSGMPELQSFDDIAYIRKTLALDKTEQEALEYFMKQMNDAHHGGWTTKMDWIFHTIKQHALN
T3 sequence (P27986 whole entry partner): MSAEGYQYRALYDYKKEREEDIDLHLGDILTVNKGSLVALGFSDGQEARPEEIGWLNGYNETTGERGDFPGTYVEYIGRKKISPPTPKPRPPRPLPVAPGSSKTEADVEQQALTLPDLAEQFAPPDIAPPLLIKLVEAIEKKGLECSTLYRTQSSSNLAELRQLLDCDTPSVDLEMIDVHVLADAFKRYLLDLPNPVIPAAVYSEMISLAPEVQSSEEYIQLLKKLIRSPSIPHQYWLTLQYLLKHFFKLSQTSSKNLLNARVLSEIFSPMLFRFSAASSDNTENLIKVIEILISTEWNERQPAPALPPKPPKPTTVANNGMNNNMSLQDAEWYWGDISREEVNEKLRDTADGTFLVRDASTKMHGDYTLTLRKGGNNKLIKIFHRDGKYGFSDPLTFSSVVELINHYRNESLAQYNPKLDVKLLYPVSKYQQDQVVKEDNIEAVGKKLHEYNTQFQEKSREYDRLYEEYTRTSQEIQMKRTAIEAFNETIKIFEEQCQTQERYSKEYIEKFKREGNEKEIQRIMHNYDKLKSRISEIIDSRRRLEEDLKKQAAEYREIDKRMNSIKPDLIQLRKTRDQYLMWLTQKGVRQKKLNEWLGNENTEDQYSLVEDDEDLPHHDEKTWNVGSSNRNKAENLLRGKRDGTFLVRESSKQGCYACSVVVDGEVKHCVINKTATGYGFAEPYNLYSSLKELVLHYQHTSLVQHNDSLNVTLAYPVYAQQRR
Procedure: as §1, §2, §3, §4

PI3Kg (p110g) = target: T4, PI3Kg (p110g) (Homo sapiens, UniProt P48736); assay: Lipid kinase inhibitory activity, ADP-Glo; type: biochemical; conditions: γ
T4 construct: purchased Reaction Biology Corporation (RBC)
Procedure: as §1, §2, §3, §4

[1] = target: T5, PI3K (p110a(H1047R)/p85a) (Homo sapiens, UniProt P42336, H1047R); assay: Lipid kinase inhibitory activity, ADP-Glo; type: biochemical; conditions: α H1047R
T5 construct: purchased Reaction Biology Corporation (RBC)
T5 sequence (P42336 whole entry H1047R): as the sequence (P42336 whole entry E545K) above, with K545E, H1047R counted along it
T5 sequence (P27986 whole entry partner): as the sequence (P27986 whole entry partner) above
Procedure: as §1, §2, §3, §4

PI3Ka (p110a/p85a) = target: T6, PI3Ka (p110a/p85a) (Homo sapiens, UniProt P42336); assay: Lipid kinase inhibitory activity, ADP-Glo; type: biochemical; conditions: α
T6 construct: purchased Reaction Biology Corporation (RBC)
T6 sequence (P42336 whole entry): as the sequence (P42336 whole entry E545K) above, with K545E counted along it
T6 sequence (P27986 whole entry partner): as the sequence (P27986 whole entry partner) above
Procedure: as §1, §2, §3, §4

PI3K (p110a(E542K)/p85a) = target: T7, PI3K (p110a(E542K)/p85a) (Homo sapiens, UniProt P42336, E542K); assay: Lipid kinase inhibitory activity, ADP-Glo; type: biochemical; conditions: α E542K
T7 construct: purchased Reaction Biology Corporation (RBC)
T7 sequence (P42336 whole entry E542K): as the sequence (P42336 whole entry E545K) above, with E542K, K545E counted along it
T7 sequence (P27986 whole entry partner): as the sequence (P27986 whole entry partner) above
Procedure: as §1, §2, §3, §4

PI3Kb (p110b/p85a) = target: T8, PI3Kb (p110b/p85a) (Homo sapiens, UniProt P42338); assay: Lipid kinase inhibitory activity, ADP-Glo; type: biochemical; conditions: β
T8 construct: purchased Reaction Biology Corporation (RBC)
T8 sequence (P42338 whole entry): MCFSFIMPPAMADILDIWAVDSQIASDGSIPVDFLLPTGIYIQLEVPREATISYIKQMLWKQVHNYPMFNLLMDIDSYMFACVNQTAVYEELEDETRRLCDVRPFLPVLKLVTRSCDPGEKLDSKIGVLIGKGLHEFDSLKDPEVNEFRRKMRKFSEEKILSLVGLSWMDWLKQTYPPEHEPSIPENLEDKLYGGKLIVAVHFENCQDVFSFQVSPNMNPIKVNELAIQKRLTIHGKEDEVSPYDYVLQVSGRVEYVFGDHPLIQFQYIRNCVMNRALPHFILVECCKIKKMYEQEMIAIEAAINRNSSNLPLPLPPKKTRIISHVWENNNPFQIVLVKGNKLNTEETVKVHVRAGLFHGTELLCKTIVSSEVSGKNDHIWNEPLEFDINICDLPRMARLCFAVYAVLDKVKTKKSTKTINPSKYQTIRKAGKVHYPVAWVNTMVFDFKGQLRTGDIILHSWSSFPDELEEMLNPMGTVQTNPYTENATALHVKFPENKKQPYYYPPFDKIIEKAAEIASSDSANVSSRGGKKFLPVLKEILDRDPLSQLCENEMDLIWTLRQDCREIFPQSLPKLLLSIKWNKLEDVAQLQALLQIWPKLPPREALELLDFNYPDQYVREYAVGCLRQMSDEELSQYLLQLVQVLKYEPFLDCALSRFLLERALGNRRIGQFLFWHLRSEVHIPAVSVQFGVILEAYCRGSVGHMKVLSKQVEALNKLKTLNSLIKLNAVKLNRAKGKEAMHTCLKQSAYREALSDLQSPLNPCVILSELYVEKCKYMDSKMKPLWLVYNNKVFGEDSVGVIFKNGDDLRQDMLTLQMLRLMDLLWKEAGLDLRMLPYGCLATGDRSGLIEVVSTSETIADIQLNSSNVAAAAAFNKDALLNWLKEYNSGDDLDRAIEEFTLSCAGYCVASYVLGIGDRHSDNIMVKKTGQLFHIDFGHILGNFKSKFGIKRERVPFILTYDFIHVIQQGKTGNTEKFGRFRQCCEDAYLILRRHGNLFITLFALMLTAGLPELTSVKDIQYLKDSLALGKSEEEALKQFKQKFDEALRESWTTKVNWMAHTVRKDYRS
T8 sequence (P27986 whole entry partner): as the sequence (P27986 whole entry partner) above
Procedure: as §1, §2, §3, §4

[2] = Accelerated stability study of topical gel formulations at 80° C.; type: physicochemical; conditions: for Stability in gel formulation: 80° C. for 10 days; for percent hydrolysis to the parent compound MTPP: gel formulation, 80° C.
Procedure: Topical gel formulations were prepared using excipients as shown in Table 2 according to Example 8, in which Compounds 1.002, 1.012, and 1.006 were used as the active ingredient, respectively. These gel formulations were subjected to stability study at 80° C. for 10 days. Stability under the condition of at 80° C. for 10 days is expected to be approximately equivalent to the stability for three (3) years at room temperature. A relative purity of the tested compound after being exposed for 5 days and 10 days at 80° C. was determined by HPLC, as compared to its initial purity (at day 0).
The values shown in the table are percent hydrolysis of the respective compounds to the parent compound MTPP.
Topical gel formulations of Compound 1.002 were prepared using excipients as shown in Table 2 according to Example 8, in which the content of oleic acid varied at 1%, 2%, 5%, and 10%, respectively. These gel formulations were subjected to stability study at 80° C. for 10 days, which is expected to be approximately equivalent to the stability for three (3) years at room temperature. A purity of the tested compound on day 0, 5, 7, and 10 at 80° C. was determined by HPLC. The detected impurity of the tested compound appears to be the hydrolysis product, as MTPP. Table 17 represents stability data of Compound 1.002 in topical formulations having oleic acid at various contents.
Gel formulations of Example 17 were subjected to stability study at 80° C. for 10 days. Stability under the condition of at 80° C. for 10 days is expected to be approximately equivalent to the stability for three (3) years at room temperature. A relative purity of Compound 1.002 after being exposed for 5 days and 10 days at 80° C. was determined by HPLC, as compared to its initial purity (at day 0).

[3] = as above; type: physicochemical; conditions: gel formulation, 3 days
[4] = In vitro human skin permeation study of topical gel formulations (Franz diffusion cells); type: in vitro ADME; conditions: Study-4, saturated gel, human skin
[5] = as above; type: in vitro ADME; conditions: saturated gel formulations, skin flux experiments
Source text: The gel formulation of Example 8 was used as the donor phase to determine the permeation of Compound 1.002 through human skin and its effectiveness as a topical application. Three skin donors and three diffusion cells (for each donor) per formulation were used in the in vitro skin permeation experiments. Split thickness dermatomed (approximately at […] thickness) human cadaver skin, supplied by New York Firefighters Skin Bank, NY, was used to determine the permeation rate of the tested compound (i.e., the drug) in vitro. All in vitro skin permeation studies were conducted using the Vertical Diffusion Cells assembly with consoles (Model FDC-6), and heating controllers (Logan Instruments Inc. Somerset, NJ). Each assembly consisted of six vertical, jacketed (37° C.±0.5° C.) 12-mL Franz diffusion cells with magnetic stirrer and 1.767 cm^2 diffusion area.
Skin flux studies were run for a period of 48 hours. At predetermined intervals (2, 4, 8, 24 and 48 hours) after starting the experiment, the entire contents of the receiver compartment were collected for determining concentrations of the drug by HPLC. The receiver compartment was refilled with fresh receiver medium. The receiver medium was pH 7.4 phosphate buffer with 0.5 mg/ml of Oleath 20 with the saturation concentration of the drug in the receptor medium being 0.152 mg/ml. This solubility of the drug in the receiver medium was enough to ensure sink conditions throughout each collection interval.
Samples of the receptor phase were obtained at 2, 4, 8, 12, 24 and 48 h and concentrations of Compound 1.002 and 3-(4-morpholinothieno(3,2-d)pyrimidin-2-yl)phenol (metabolite of Compound 1.002, abbreviated as MTPP) were determined using a validated HPLC method. The metabolism of Compound 1.002 to MTPP takes place in the human skin by esterase enzymes.
HPLC method: Column—Gemini C-18 4.6×150 mm, 5 μm particle size; Mobile Phase—water:acetonitrile 25:75 containing 0.1% TFA; Flow Rate—1 mL/min; Detection—274 nm; Column Temperature—40° C.; and Run Time—10 min. The retention times for MTPP and Compound 1.002 were 3.9 and 7.2 minutes, respectively.
The skin flux of drugs and cumulative amount of drugs permeated (sum of MTPP and Compound 1.002) for a period of 48 hours were calculated and are shown in Table 3. FIG. 3 represents a plot of Cumulative amount permeated versus time.

T1 sequence (O00329 whole entry): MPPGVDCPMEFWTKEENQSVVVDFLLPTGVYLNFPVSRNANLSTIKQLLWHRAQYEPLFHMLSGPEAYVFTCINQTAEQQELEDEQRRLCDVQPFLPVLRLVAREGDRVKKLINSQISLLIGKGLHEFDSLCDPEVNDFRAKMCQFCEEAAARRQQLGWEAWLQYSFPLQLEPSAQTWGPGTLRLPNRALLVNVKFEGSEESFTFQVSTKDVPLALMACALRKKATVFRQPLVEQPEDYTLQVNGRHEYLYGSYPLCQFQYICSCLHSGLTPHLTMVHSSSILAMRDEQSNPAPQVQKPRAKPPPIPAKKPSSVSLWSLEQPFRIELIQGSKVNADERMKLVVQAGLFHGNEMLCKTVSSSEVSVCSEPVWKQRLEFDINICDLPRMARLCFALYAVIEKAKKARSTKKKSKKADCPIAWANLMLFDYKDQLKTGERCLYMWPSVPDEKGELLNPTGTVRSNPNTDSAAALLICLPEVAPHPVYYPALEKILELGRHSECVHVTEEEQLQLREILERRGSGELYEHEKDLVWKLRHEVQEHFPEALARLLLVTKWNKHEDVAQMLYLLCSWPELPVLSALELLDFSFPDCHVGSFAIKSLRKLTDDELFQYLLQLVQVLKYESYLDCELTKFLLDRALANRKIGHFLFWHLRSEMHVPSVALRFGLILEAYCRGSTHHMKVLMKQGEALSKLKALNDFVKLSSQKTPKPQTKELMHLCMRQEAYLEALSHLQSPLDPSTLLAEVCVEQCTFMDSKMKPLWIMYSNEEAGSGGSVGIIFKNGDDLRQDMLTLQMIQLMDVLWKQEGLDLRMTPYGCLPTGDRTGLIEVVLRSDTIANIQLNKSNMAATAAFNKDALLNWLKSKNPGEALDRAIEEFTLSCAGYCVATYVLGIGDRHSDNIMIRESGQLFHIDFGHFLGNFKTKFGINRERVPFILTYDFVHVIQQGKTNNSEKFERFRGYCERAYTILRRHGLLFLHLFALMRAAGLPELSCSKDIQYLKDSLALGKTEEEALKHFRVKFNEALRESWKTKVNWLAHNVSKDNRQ
T1 sequence (P27986 whole entry partner): as the sequence (P27986 whole entry partner) above

SMILES | IC50 (PI3Kd (p110d/p85a)) [nM] | IC50 (MTOR/FRAP1) [nM] | IC50 (PI3K (p110a(E545K)/p85a)) [nM] | IC50 (PI3Kg (p110g)) [nM] | IC50 [1] [nM] | IC50 (PI3Ka (p110a/p85a)) [nM] | IC50 (PI3K (p110a(E542K)/p85a)) [nM] | IC50 (PI3Kb (p110b/p85a)) [nM] | Stability in gel formulation [2] | percent hydrolysis to the parent compound MTPP ([2]; 0 days) [%] | percent hydrolysis to the parent compound MTPP ([2]; 5 days) [%] | percent hydrolysis to the parent compound MTPP ([2]; 7 days) [%] | percent hydrolysis to the parent compound MTPP ([2]; 10 days) [%] | percent hydrolysis to the parent compound MTPP [3] [%] | further results
OCc1cccc(-c2nc(N3CCOCC3)c3sccc3n2)c1 [MTPPM, (3-(4-morpholinothieno[3,2-d]pyrimidin-2-yl)phenyl)methanol, reference compound] | 17 | 113 | 9.8 | 61 | 7.8 | 7 | 9 | 56 |  |  |  |  |  |  | 
O=C(/C=C/c1ccccc1)Oc1cccc(-c2nc(N3CCOCC3)c3sccc3n2)c1 [Compound 1.014, 3-(4-Morpholinothieno[3,2-d]pyrimidin-2-yl)phenyl Cinnamate] |  |  |  |  |  |  |  |  | very stable | 0.00 | 2.09 | 2.43 | 2.94 | 1.32 | 
CCCCCCCCCC(=O)Oc1cccc(-c2nc(N3CCOCC3)c3sccc3n2)c1 [Compound 1.008, 3-(4-Morpholinothieno[3,2-d]pyrimidin-2-yl)phenyl Decanoate] |  |  |  |  |  |  |  |  | very stable | 0.00 | 0.28 | 0.39 | 0.56 | 0.20 | 
CCCCCCCC/C=C\CCCCCCCC(=O)Oc1cccc(-c2nc(N3CCOCC3)c3sccc3n2)c1 [Compound 1.011, 3-(4-Morpholinothieno[3,2-d]pyrimidin-2-yl)phenyl Oleate] |  |  |  |  |  |  |  |  | very stable | 0.09 | 0.24 | 0.33 | 0.43 | 0.18 | 
COc1cccc(-c2nc(N3CCOCC3)c3sccc3n2)c1 [Compound 1.001, 4-(2-(3-Methoxyphenyl)thieno[3,2-d]pyrimidin-4-yl)morpholine] |  |  |  |  |  |  |  |  |  |  |  |  |  |  | Cumulative permeation (intact compound) ([4]; 2 h): 0.0 μg/cm^2; Hydrolysis of Cmpd. 1.001 to MTPP ([4]; 2 h): 0.0; Cumulative permeation (intact compound) ([4]; 4 h): 10.2 μg/cm^2; Hydrolysis of Cmpd. 1.001 to MTPP ([4]; 4 h): 0.0; Cumulative permeation (intact compound) ([4]; 8 h): 51.8 μg/cm^2; Hydrolysis of Cmpd. 1.001 to MTPP ([4]; 8 h): 0.0; Cumulative permeation (intact compound) ([4]; 24 h): 202.1 μg/cm^2; Hydrolysis of Cmpd. 1.001 to MTPP ([4]; 24 h): 0.0; Cumulative permeation (intact compound) ([4]; 48 h): 260.4 μg/cm^2; Hydrolysis of Cmpd. 1.001 to MTPP ([4]; 48 h): 0.0; Metabolism to MTPP during permeation through human skin [5]: appeared not to metabolize to MTPP
CC(=O)OCc1cccc(-c2nc(N3CCOCC3)c3sccc3n2)c1 [Compound 1.015, 3-(4-Morpholinothieno[3,2-d]pyrimidin-2-yl)benzyl acetate] | 714 | 3320 | 4310 | 131 | 3110 | 1930 | 3690 | 5590 |  |  |  |  |  |  | 
